According to paper PMC4028107, “Adenosine deaminase activity modulation by some street drug: molecular docking simulation and experimental investigation” (DARU Journal of Pharmaceutical Sciences, 2014):

Experiments:
[1] = target: T1, Adenosine deaminase (EC 3.5.4.4) extracted from bovine spleen (Bos taurus, UniProt P56658); experiment: biochemical; format: biochemical; conditions: for IC50: 2 mg/ml adenosine deaminase enzyme, 37°C, 30 min incubation, PBS pH 7.4, compounds 5–300 μM
T1 construct: Adenosine deaminase (EC 3.5.4.4) extracted from bovine spleen; purchased sigma; host or cells: bovine spleen (tissue extract)
T1 sequence (P56658 1-363): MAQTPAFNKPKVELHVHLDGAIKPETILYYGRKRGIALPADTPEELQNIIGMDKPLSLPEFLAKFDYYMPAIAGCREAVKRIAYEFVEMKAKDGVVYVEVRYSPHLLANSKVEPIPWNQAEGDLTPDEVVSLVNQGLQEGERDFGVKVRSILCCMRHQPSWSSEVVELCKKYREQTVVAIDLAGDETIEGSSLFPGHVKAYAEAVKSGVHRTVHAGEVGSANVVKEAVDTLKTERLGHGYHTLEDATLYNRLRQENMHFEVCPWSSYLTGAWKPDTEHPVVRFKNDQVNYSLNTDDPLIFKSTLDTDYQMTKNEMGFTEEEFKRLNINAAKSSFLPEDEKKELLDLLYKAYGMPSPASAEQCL
Protocol: Adenosine deaminase (EC 3.5.4.4) extracted from bovine spleen was purchased from sigma, and all other used materials were of analytical grade and acquired from Merck. PBS that is used in assay was adjusted at 7.4, at which, enzyme has optimal activity in [38, 39]. All solutions were prepared in MilliQ (Millipore, USA) water.
Released ammonia resulted by enzyme activity was determined by specific Berthelot colorimetric method which was used for micro determination of ADA activity in serum. […] In this process sodium nitroprusside is used as the catalyst. The reaction was initiated by addition of adenosine as a substrate at 37°C to preincubated enzyme with different concentrations of tested compounds at different concentrations (5–300 μM). Finally, the enzymatic reaction was stopped at the end of 30 minutes of incubation by adding phenol nitroprusside solution. The mixture kept again for 30 minutes at 37°C before absorbance determination.
Obtained absorbance was normalized through blank sample, and IC50 values were calculated by Prism software (Ver. 5, GraphPad Software Inc., San Diego CA,).

adenosine deaminase [2] = target: T2, adenosine deaminase (Bos taurus, UniProt P56658); experiment: Fluorescence spectroscopy of ADA (Trp emission); format: binding, bovine; conditions: excitation 290 nm, emission 300-400 nm, pH 7.4, enzyme 6 μM, compounds 1.7 to 73.4 μM
T2 construct: Adenosine deaminase (EC 3.5.4.4) extracted from bovine spleen; purchased sigma; host or cells: bovine spleen (tissue extract)
T2 sequence (P56658 1-363): T1 sequence (P56658 1-363)
Protocol: Fluorescence spectroscopy was performed on a Hitachi fluorescence spectrophotometer model MPF-4 with 1 cm path length fluorescence cuvette and final volume of 400 μL. The excitation wavelength was adjusted in 290 nm, and the emission was scanned every 1 nm in the range of 300 to 400 nm.

adenosine deaminase [3] = target: T2, adenosine deaminase; experiment: Circular dichroism spectroscopy of ADA; set-up: species or system bovine; conditions: far-UV 200–260 nm, pH 7.4; cocaine concentration around 180 μM
Protocol: CD spectra were measured in the far-UV (200–260 nm) region with JASCO J-715 spectropolarimeter (Japan). JASCO J-715 software not only gave us the possibility of data smoothing, but also used to predict the secondary structure changes of the protein according to the statistical method. Each scan was recorded in 1 nm increments at 37°C, repeated three times, and averaged. The protein was in 0.1 M PBS buffer, pH = 7.4, and its concentration was adjusted to 2 mg/ml in 1 cm path length cuvette. The results were expressed in molar ellipticity [θ] (deg cm^2.dmol^−1).

Structure (SMILES) | IC50 [1] [µM] | change in fluorescence spectra of ADA (adenosine deaminase [2]) | change in CD spectra of ADA (adenosine deaminase [3]) | concentration up to which ADA was activated [1] [µM]
CCOc1ccc2c3c1O[C@H]1[C@@H](O)C=C[C@H]4[C@@H](C2)N(C)CC[C@@]341 [Ethylmorphine] | 35 | do not show noticeable change and shift | – | –
COC(=O)[C@H]1[C@@H](OC(=O)c2ccccc2)C[C@@H]2CC[C@H]1N2C [Cocaine] | 180 | bathochromic shift | drastic changes | –
COC1=CC=C2[C@H]3Cc4ccc(OC)c5c4[C@@]2(CCN3C)[C@H]1O5 [Thebaine] | 163 | do not show noticeable change and shift | – | 50
